Assay results published in PubChem BioAssay AID1963971 (Molecular Pharmacology Branch, DTP, NCI, 2024).

Tested on: 953936-095-R-J2-PDC spheroids with HUVEC/MSC, viability
Experiment: Anticancer human tumor 953936-095-R-J2-PDC patient-derived cervical squamous cell carcinoma cell line growth inhibition [PI3K]
Conditions: for IC50: curve of first compound; for viability, T/C: stronger effect = lower value
Excerpt: Combinatorial screen of targeted agents with the PI3K inhibitors inavolisib, alpelisib, duvelisib, and copanlisib in multi-cell type tumor spheroids
A high-throughput screen of multi-cell type tumor spheroids was designed to identify active combinations of targeted small molecules and PI3K pathway inhibitors. Complex spheroids include a stromal component modeled by human endothelial cells (HUVEC) and fibroblasts modeled by human mesenchymal stem cells (MSCs). The concentration ranges selected for each drug and investigational agent were based upon clinically achievable concentrations if the clinical Cmax of the agent was known.
Compounds. The drugs and investigational agents: inavolisib (NSC800729), alpelisib (NSC765974), duvelisib (NSC772469), copanlisib (NSC816437), ipatasertib (NSC767898), afuresertib (NSC778305), talazoparib (NSC767125), sapanisertib (NSC764658), selumetinib (NSC741078), tovorafenib (DAY101, NSC766906), vemurafenib (NSC761431), ravoxertinib (NSC781343), sotorasib (NSC818433), MRTX1133 (NSC 836407), abemaciclib (NSC 768073), palbociclib (NSC758247), venetoclax (NSC 766270), SY5609 (NSC837396), enzalutamide (NSC755605), and darolutamide (NSC825331), were obtained from the National Cancer Institute (NCI) Developmental Therapeutics Program Chemical Repository. The FDA-approved anticancer drug set is available from the NCI Developmental Therapeutics Program. […] The stock solutions were prepared in dimethyl sulfoxide (DMSO, Sigma-Aldrich, St. Louis, MO, cat. D2650) at 800-fold the tested concentration and stored at -70 degrees C prior to their use. All drugs and investigational agents were tested over a range starting from a high concentration at or near the clinical Cmax and decreasing in half-log increments. If the clinical Cmax for an agent had not been determined, the highest concentration tested was 10 microM.
Cell Culture. All cells were maintained in an incubator at 37 degrees C and 5% CO2 with 95% humidity. The PDC lines were cultured according to standard operating procedures established by the NCI PDMR (https://pdmr.cancer.gov/sops/default.htm). All PDCs were thawed and cultured in Matrigel-coated flasks prepared with a working solution of 1X Ham's F-12 nutrient mix, without supplementation (Invitrogen, Waltham, MA, cat. 11765054), 100 U/mL penicillin-streptomycin (Invitrogen, cat. 15140122), and 2.5% Matrigel (Corning Inc., Corning, NY, cat. 354248) for the first three passages. The 354836-022-R-J1-PDC, 475296-252-R-J1-PDC, and 997726-040-R-J2-PDC lines were cultured in 6A media, which includes advanced DMEM/F-12 (Thermo Fisher Scientific, cat. 12634028), 10 mM HEPES (Thermo Fisher Scientific, cat. 15630080), 1X GlutaMAX supplement (Thermo Fisher Scientific, cat. 35050061), 0.1 mg/mL primocin (InvivoGen, San Diego, CA, cat. ant-pm-2), 10% defined fetal bovine serum, heat inactivated (HyClone Laboratories Inc., Logan, UT, cat. SH30070.03HI), 50% L-WRN conditioned media (ATCC, cat. CRL-3276), 1.25 mM N-Acetyl-L-cysteine (Sigma-Aldrich, cat. A9165), 10 mM nicotinamide (Sigma-Aldrich, cat. N0636), 1X B-27 supplement (Thermo Fisher Scientific, cat. 17504044), 1X N-2 supplement (Thermo Fisher Scientific, cat. 17502048), and 10 microM Y-27632 dihydrochloride (Tocris Bioscience, Bristol, United Kingdom, cat. 1254). The 624824-186-R-J2-PDC line was cultured in 6C/Colon 1B media, which includes all 6A media components plus 50 ng/mL human EGF recombinant protein (Thermo Fisher Scientific, cat. PHG0311). […]

[1] = second compound 0.00316 µM, first compound 0.0316 µM
[2] = second compound 0.00316 µM, first compound 0.1 µM
[3] = second compound 0.00316 µM, first compound 0.316 µM
[4] = second compound 0.00316 µM, first compound 1 µM
[5] = second compound 0.00316 µM, first compound 3.16 µM
[6] = second compound 0.00316 µM, first compound 10 µM
[7] = second compound 0.01 µM, first compound 0.0316 µM
[8] = second compound 0.01 µM, first compound 0.1 µM
[9] = second compound 0.01 µM, first compound 0.316 µM
[10] = second compound 0.01 µM, first compound 1 µM
[11] = second compound 0.01 µM, first compound 3.16 µM
[12] = second compound 0.01 µM, first compound 10 µM
[13] = second compound 0.0316 µM, first compound 0.0316 µM
[14] = second compound 0.0316 µM, first compound 0.1 µM
[15] = second compound 0.0316 µM, first compound 0.316 µM
[16] = second compound 0.0316 µM, first compound 1 µM
[17] = second compound 0.0316 µM, first compound 3.16 µM
[18] = second compound 0.0316 µM, first compound 10 µM
[19] = second compound 0.1 µM, first compound 0.0316 µM
[20] = second compound 0.1 µM, first compound 0.1 µM
[21] = second compound 0.1 µM, first compound 0.316 µM
[22] = second compound 0.1 µM, first compound 1 µM
[23] = second compound 0.1 µM, first compound 3.16 µM
[24] = second compound 0.1 µM, first compound 10 µM
[25] = second compound 0.316 µM, first compound 0.0316 µM
[26] = second compound 0.316 µM, first compound 0.1 µM
[27] = second compound 0.316 µM, first compound 0.316 µM
[28] = second compound 0.316 µM, first compound 1 µM
[29] = second compound 0.316 µM, first compound 3.16 µM
[30] = second compound 0.316 µM, first compound 10 µM
[31] = second compound 1 µM, first compound 0.0316 µM
[32] = second compound 1 µM, first compound 0.1 µM
[33] = second compound 1 µM, first compound 0.316 µM
[34] = second compound 1 µM, first compound 1 µM
[35] = second compound 1 µM, first compound 3.16 µM
[36] = second compound 1 µM, first compound 10 µM
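Further: spheroids exposed to compounds for seven days before read-out.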

Structure (SMILES): CC1(C)CCC(CN2CCN(c3ccc(C(=O)NS(=O)(=O)c4ccc(NCC5CCOCC5)c([N+](=O)[O-])c4)c(Oc4cnc5[nH]ccc5c4)c3)CC2)=C(c2ccc(Cl)cc2)C1 + CC(Nc1ccc2c(c1)OCCn1cc(N3C(=O)OCC3C(F)F)nc1-2)C(N)=O
- IC50 (second compound 0.00316 µM): 6.92 µM
- IC50 (second compound 0.01 µM): 8.42 µM
- IC50 (second compound 0.0316 µM): 8.12 µM
- IC50 (second compound 0.1 µM): > 10 µM
- IC50 (second compound 0.316 µM): < 0.0316 µM
- IC50 (second compound 1 µM): < 0.0316 µM
- viability, T/C [1]: 88.4%
- viability, T/C [2]: 89.8%
- viability, T/C [3]: 90.4%
- viability, T/C [4]: 100%
- viability, T/C [5]: 142%
- viability, T/C [6]: 25.5%
- viability, T/C [7]: 90.2%
- viability, T/C [8]: 88.9%
- viability, T/C [9]: 92.3%
- viability, T/C [10]: 93.6%
- viability, T/C [11]: 115%
- viability, T/C [12]: 41.9%
- viability, T/C [13]: 77%
- viability, T/C [14]: 74.6%
- viability, T/C [15]: 75.8%
- viability, T/C [16]: 75.8%
- viability, T/C [17]: 85%
- viability, T/C [18]: 44%
- viability, T/C [19]: 57.7%
- viability, T/C [20]: 53%
- viability, T/C [21]: 53.1%
- viability, T/C [22]: 59.4%
- viability, T/C [23]: 59.5%
- viability, T/C [24]: 48.3%
- viability, T/C [25]: 35.7%
- viability, T/C [26]: 36%
- viability, T/C [27]: 33.5%
- viability, T/C [28]: 31.8%
- viability, T/C [29]: 32.5%
- viability, T/C [30]: 36.9%
- viability, T/C [31]: 22.3%
- viability, T/C [32]: 24.4%
- viability, T/C [33]: 21.2%
- viability, T/C [34]: 22.1%
- viability, T/C [35]: 22.1%
- viability, T/C [36]: 21.7%

Structure (SMILES): C[C@@H](NC(=O)c1ncnc(N)c1Cl)c1ncc(C(=O)Nc2cc(C(F)(F)F)c(Cl)cn2)s1 + CC(Nc1ccc2c(c1)OCCn1cc(N3C(=O)OCC3C(F)F)nc1-2)C(N)=O
- IC50 (second compound 0.00316 µM): > 10 µM
- IC50 (second compound 0.01 µM): > 10 µM
- IC50 (second compound 0.0316 µM): > 10 µM
- IC50 (second compound 0.1 µM): > 10 µM
- IC50 (second compound 0.316 µM): < 0.0316 µM
- IC50 (second compound 1 µM): < 0.0316 µM
- viability, T/C [1]: 98.6%
- viability, T/C [2]: 103%
- viability, T/C [3]: 101%
- viability, T/C [4]: 104%
- viability, T/C [5]: 113%
- viability, T/C [6]: 97.7%
- viability, T/C [7]: 97.2%
- viability, T/C [8]: 89.3%
- viability, T/C [9]: 102%
- viability, T/C [10]: 99.5%
- viability, T/C [11]: 107%
- viability, T/C [12]: 121%
- viability, T/C [13]: 78.6%
- viability, T/C [14]: 74.3%
- viability, T/C [15]: 78.2%
- viability, T/C [16]: 90.8%
- viability, T/C [17]: 93.9%
- viability, T/C [18]: 85.2%
- viability, T/C [19]: 55.6%
- viability, T/C [20]: 56.5%
- viability, T/C [21]: 61.2%
- viability, T/C [22]: 61.5%
- viability, T/C [23]: 67.8%
- viability, T/C [24]: 53.2%
- viability, T/C [25]: 37.2%
- viability, T/C [26]: 34.8%
- viability, T/C [27]: 38.3%
- viability, T/C [28]: 39.8%
- viability, T/C [29]: 40.8%
- viability, T/C [30]: 41.9%
- viability, T/C [31]: 23%
- viability, T/C [32]: 26.8%
- viability, T/C [33]: 25.3%
- viability, T/C [34]: 27.2%
- viability, T/C [35]: 27.7%
- viability, T/C [36]: 24.8%
